Literature values in US8895055B2, “Telodendrimer nanodiscs without apolipoprotein” (The Regents of the University of California, priority 2011, dated 2014).

For `C[C@@H]1[C@H](O)[C@@H](C)/C=C/C=C/C=C/C=C/C=C/C=C/C=C/[C@H](O[C@@H]2O[C@H](C)[C@@H](O)[C@H](N)[C@@H]2O)C[C@@H]2O[C@](O)(C[C@@H](O)C[C@@H](O)[C@H](O)CC[C@@H](O)C[C@@H](O)CC(=O)O[C@H]1C)C[C@H](O)[C@H]2C(=O)O` [Amphotericin B], the solubility in water is given as “poorly soluble in water”.
